Non-standard residues stand in square brackets, D forms with d. No end group written: not given here. Hyp = O=C(O)[C@@H]1C[C@@H](O)CN1
Experiments:
HDF = test: Cell adhesion assay on coated 96-well plate, HDF; type: cell-based, Human; conditions: 37° C., 5% CO2, 60 min
Method: (§1) D-MEM High Glucose, D-MEM Low Glucose and 0.5% trypsin/EDTA were purchased from Wako Pure Chemical Industries, Ltd. (Osaka); FBS, penicillin. streptomycin (100×) were purchased from Invitrogen (Thermo Fisher Scientific corporation). Human mammary gland cancer (MDA-MB-231) was purchased from ATCC; Human skin fibroblasts (HDF) were purchased from Cell Applications. MDA-MB-231 was cultured using DMEM High Glucose (10% FBS, 100 Units/ml penicillin, 100 μg/ml streptomycin), and then maintained; and HDF was cultured using DMEM Low Glucose (10% FBS, 100 Units/ml penicillin, 100 μg/ml streptomycin), and then maintained. When used in cell adhesion assay and Western blotting, the cells were treated with 0.05% trypsin/EDTA, and then collected in a 15 ml tube to be subjected to centrifugal treatment at 1,200 rpm for four minutes. After the removal of the supernatant, the cells were suspended with an incubation medium by which the cells were incubated at 37° C. for 20 to 30 min and then recovered. Such cell suspension was used for cell adhesion assay and Western blotting.
(§2) Type I collagen (KOKEN CO., LTD, Tokyo) and BSA (Jackson Immuno Research Laboratories Inc., USA), in an aqueous solution as 30 μg/ml, were added to a 96-well plate (Nunc MicroWell 96-Well Microplates) by an amount of 50 μl/well, followed by drying the sample for two nights. Collagen-like peptides having no Cys residue were prepared as aqueous solutions of 1 to 3 mg/ml, and then heated at 95° C. for 5 min, followed by storing them at 4° C. overnight to form the triple-helical structure. Then, they were diluted to 30 μg/ml, and then added to a 96-well plate in an amount of 50 μl/well followed by drying them for two nights. Collagen-like peptides having Cys residues were dissolved in a degassed 0.05% (v/v) TFA aqueous solution, followed by preparing to a concentration of 300 μg/ml, and then heating the sample at 80° C. for 5 min. […] Further, a mineral oil was layered on the peptide solution, and such peptide solution was then oxidized at room temperature until thiol could no longer be detected by Ellman's test. […]

MDA-MB-231 = test: Cell adhesion assay on coated 96-well plate, MDA-MB-231; type: cell-based, Human; conditions: for cell adhesion of MDA-MB-231: coated 96-well plate
Method: as §1, §2

| Substance | cell adhesion of HDF (HDF) | cell adhesion of MDA-MB-231 (MDA-MB-231) | content of YCC2-GFOGER giving the same level of cell adhesion capability as collagen (MDA-MB-231; mixed polymerized peptide of YCC2 and YCC2-GFOGER, MDA-MB-231, 180 min) [%] |
| --- | --- | --- | --- |
| G(POG)4PRGQOGVMGFOG(POG)4-NH2 [Soluble GVMGFO] | cellular adhesion was not observed | – | – |
| Ac-G(POG)4FOGERG(POG)5-NH2 (GPPGPPGPPGPPGFPGERGPPGPPGPPGPPGPPG; HELM PEPTIDE1{[ac].G.P.[Hyp].G.P.[Hyp].G.P.[Hyp].G.P.[Hyp].G.F.[Hyp].G.E.R.G.P.[Hyp].G.P.[Hyp].G.P.[Hyp].G.P.[Hyp].G.P.[Hyp].G.[am]}$$$$V2.0; SMILES CC(=O)NCC(=O)N1CCC[C@H]1C(=O)N1C[C@H](O)C[C@H]1C(=O)NCC(=O)N1CCC[C@H]1C(=O)N1C[C@H](O)C[C@H]1C(=O)NCC(=O)N1CCC[C@H]1C(=O)N1C[C@H](O)C[C@H]1C(=O)NCC(=O)N1CCC[C@H]1C(=O)N1C[C@H](O)C[C@H]1C(=O)NCC(=O)N[C@@H](Cc1ccccc1)C(=O)N1C[C@H](O)C[C@H]1C(=O)NCC(=O)N[C@@H](CCC(=O)O)C(=O)N[C@@H](CCCNC(=N)N)C(=O)NCC(=O)N1CCC[C@H]1C(=O)N1C[C@H](O)C[C@H]1C(=O)NCC(=O)N1CCC[C@H]1C(=O)N1C[C@H](O)C[C@H]1C(=O)NCC(=O)N1CCC[C@H]1C(=O)N1C[C@H](O)C[C@H]1C(=O)NCC(=O)N1CCC[C@H]1C(=O)N1C[C@H](O)C[C@H]1C(=O)NCC(=O)N1CCC[C@H]1C(=O)N1C[C@H](O)C[C@H]1C(=O)NCC(N)=O) [Soluble GFOGER] | cellular adhesion was not observed | cell adhesion was not observed | – |
| G(POG)7IKGHRGFSGLOG(POG)6-NH2 [Soluble KGHRGF] | cellular adhesion was not observed | – | – |
| YCC(POG)5FOGERG(POG)5CCY (YCCP[Hyp]GP[Hyp]GP[Hyp]GP[Hyp]GP[Hyp]GF[Hyp]GERGP[Hyp]GP[Hyp]GP[Hyp]GP[Hyp]GP[Hyp]GCCY; not fully specified; cysteine pairing not given here) [YCC2-GFOGER] | – | – | 30 |
| gelatin | – | Significant cell adhesion was observed | – |
